Reference: patent US6525050B1, “(4-oxo-2-pyrimidinyl)thioalkyl compounds useful as AICARFT inhibitors” (Agouron Pharmaceuticals, Inc., priority 1998, dated 2003)

The compounds below were run against AICARFT (Homo sapiens, UniProt P31939) (assay: AICARFT activity, spectrophotometric enzyme assay (modified Black et al.)). Settings: 50 mM Tris-HCl pH 7.5, 25° C., absorbance at 298 nm, substrates AICAR and FTHF, steady-state rate.
Type: biochemical
Method: Enzymatic activity was measured spectrophotometrically using a modified assay developed by Black et al. (“A Rapid Assay for 5-Amino-4-imidazolecarboxamide Ribotide Transformylase,” Anal. Biochiem. 90 (1978), 397-401). The reaction volume was 1 mL and contained 50 mM Tris-HCl pH 7.5, 25 mM KCl, 20 mM 2-mercaptoethanol, variable concentrations of test compound in 1% DMSO, […] (5-aminoimidazole-4-carboxamideribonucleotide), […] tetrathydrofolate (FTHF), and 0.015 mM enzyme. The reaction was enzyme-initiated and followed by monitoring the increase in absorbance at 298 nm at 25° C. (ξ298=19.7×10^3 cm^−1M^−1). AICARFT inhibition constants (Ki) were determined from the dependence of the steady-state catalytic rate upon compound and substrate concentration.

Sequence of AICARFT (P31939 whole entry): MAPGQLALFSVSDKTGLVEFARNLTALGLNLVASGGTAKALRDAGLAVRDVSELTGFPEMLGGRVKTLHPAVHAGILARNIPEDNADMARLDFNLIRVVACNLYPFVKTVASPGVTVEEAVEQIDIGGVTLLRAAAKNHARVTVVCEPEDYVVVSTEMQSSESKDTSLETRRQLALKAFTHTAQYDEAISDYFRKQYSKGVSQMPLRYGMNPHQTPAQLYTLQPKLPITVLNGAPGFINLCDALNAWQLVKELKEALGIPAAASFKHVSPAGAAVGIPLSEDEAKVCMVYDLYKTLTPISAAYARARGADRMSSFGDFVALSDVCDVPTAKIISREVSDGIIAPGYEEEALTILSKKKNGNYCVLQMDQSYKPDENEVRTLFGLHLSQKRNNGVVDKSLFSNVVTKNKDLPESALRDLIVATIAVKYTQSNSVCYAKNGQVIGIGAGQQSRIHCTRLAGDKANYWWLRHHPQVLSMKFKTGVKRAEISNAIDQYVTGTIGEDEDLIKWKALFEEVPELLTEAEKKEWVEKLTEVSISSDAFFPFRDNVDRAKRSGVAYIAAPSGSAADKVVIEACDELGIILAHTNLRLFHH

Row | Ki [µM] | SMILES
1 | 3.5 | O=C(O)c1ccc(CCCCCSc2nc(-c3ccccc3)cc(=O)[nH]2)s1 [Compound 1, 5-(5-[(6-Phenyl-4(3H)-oxopyrimidin-2-yl)thio]pentyl)thiophene2-carboxylic acid]
2 | 7.2 | O=C(O)c1ccc(CCCSc2nc(-c3ccccc3)cc(=O)[nH]2)s1 [Compound 2, 5-(3-[(6-Phenyl-4(3H)-oxopyrimidin-2-yl)thio]propyl)thiophene-2-carboxylic acid]
3 | 0.28 | O=C(O)c1ccc(CCCCCSc2nc(-c3ccc(-c4cccs4)s3)cc(=O)[nH]2)s1 [Compound 3, 5-[5-([6-(5-[2-Thienyl]thien-2-yl)-4(3H)-oxopyrimidin-2-yl]thio)pentyl]thiophene-2-carboxylic acid]
4 | 54.7 | COC(=O)c1ccc(CCCCCSc2nc(-c3ccc(-c4ccccc4)cc3)cc(=O)[nH]2)s1 [Compound 4, Methyl 5-[5-([6-(4-biphenylyl)-4(3H)-oxopyrimidin-2-yl]thio)pentyl]-thiophene-2-carboxylate]
5 | 0.27 | O=C(O)c1ccc(CCCCCSc2nc(-c3ccc(-c4ccccc4)cc3)cc(=O)[nH]2)s1 [Compound 5, 5-[5-([6-(4-Biphenylyl)-4(3H)-oxopyrimidin-2-yl]thio)pentyl]thiophene-2-carboxylic acid]
6 | 0.43 | O=C(O)c1ccc(CCCCCSc2nc(-c3ccc(Oc4ccccc4)cc3)cc(=O)[nH]2)s1 [Compound 6, 5-[5-([6-(4-Phenoxypheuyl)-4(3H)-oxopyrimidin-2-yl]thio)pentyl]thiophene-2-carboxylic acid]
7 | 0.22 | O=C(O)c1ccc(CCCCCSc2nc(-c3ccc(N4CCOCC4)cc3)cc(=O)[nH]2)s1 [Compound 7, 5-[5-([6-(4-Morpholinylphenyl)-4(3H)-oxopyrimidin-2-yl]thio)pentyl]-thiophene-2-carboxylic acid]
8 | 0.04 | N#Cc1c(-c2ccc(-c3cccs3)s2)nc(SCCCCCc2ccc(C(=O)O)s2)[nH]c1=O [Compound 8, [5-([5-Cyano-6-(5-[2-thienyl]thien-2-yl)-4(3H)-oxopyrimidin-2-yl]thio)pentyl]thiopbene-2-carboxylic acid]
9 | 0.46 | O=C(O)CCC(NC(=O)c1ccc(CCCCCSc2nc(-c3ccccc3)cc(=O)[nH]2)s1)C(=O)O (stereo not drawn) [Compound 9, N-(5-[5-([6-Phenyl-4(3H)-oxopyrimidin-2-yl]thio)pentyl]theno-2-yl)glutamic acid]
10 | 0.004 | N#Cc1c(-c2ccc(-c3cccs3)s2)nc(SCCCCCc2ccc(C(=O)NC(CCC(=O)O)C(=O)O)s2)[nH]c1=O (stereo not drawn) [Compound 10, N-(5-[5-([5-Cyano-6-(5-[2-thienyl]thien-2-yl)-4(3H)-oxopyrimidin-2-yl]thio)pentyl]theno-2-yl)glutamic acid]
11 | 6.8 | O=C(O)CCC(NC(=O)c1ccc(CCCCSc2nc(-c3ccccc3)cc(=O)[nH]2)s1)C(=O)O (stereo not drawn) [Compound 11, N-(5-[5-([6-Phenyl-4(3H)-oxopyrimidin-2-yl]thio)butyl]thio2-yl)glutamic acid]
12 | 8.9 | O=C(O)CCC(NC(=O)c1ccc(CCSc2nc(-c3ccccc3)cc(=O)[nH]2)s1)C(=O)O (stereo not drawn) [Compound 12, N-(5-[2-([6-Phenyl-4(3H)-oxopyrimidin-2-yl]thio)ethyl]theno-2-yl)glutamic acid]
13 | 5.3 | O=C(O)CCC(NC(=O)c1ccc(CCCSc2nc(-c3ccccc3)cc(=O)[nH]2)s1)C(=O)O (stereo not drawn) [Compound 13, N-(5-[3-([6Phenyl-4(3H)-oxopyrimidin-2-yl]thio)propyl]theno-2-yl)glutamic acid]
14 | 0.59 | N#Cc1c(-c2ccc(-c3cccs3)s2)nc(SCc2ccc(S(=O)(=O)Nc3ccc(F)cc3)cc2)[nH]c1=O [Compound 14, N-(4-Fluorophenyl) 4-[([5-cyano-6-(5-[2-thienyl]thien-2-yl)-4(3H)-oxopyrimidin-2-yl]thio)methyl]benzenesulfonamide]
15 | 2.1 | CN(c1ccc(F)cc1)S(=O)(=O)c1ccc(CSc2nc(-c3ccc(-c4cccs4)s3)c(C#N)c(=O)[nH]2)cc1 [Compound 15, N-(4-Fluorophenyl)-N-methyl 4-[([5cyano-6-(5-[2-thienyl]thien-2-yl)-4(3H)-oxopyrimidin-2-yl]thio)methyl]benzenesulfonamide]
16 | 0.43 | Cc1ccc2cc(NS(=O)(=O)c3ccc(CSc4nc(-c5ccc(-c6cccs6)s5)c(C#N)c(=O)[nH]4)cc3)ccc2n1 [Compound 16, N-(2-Methylquinolin-6-yl) 4-[([5-cyan-6-(5-[2-thienyl]thien-2yl)-4(3H)-oxopyrimidin-2-yl]thio)methyl]benzenesulfonamide]
17 | 1 | Cc1cc(CSc2nc(-c3ccc(-c4cccs4)s3)c(C#N)c(=O)[nH]2)ccc1S(=O)(=O)Nc1ccc(F)cc1 [Compound 17, N-(4-Fluorophenyl) 4-[([5-cyano-6-(5-[2-thienyl]thien-2-yl)-4(3H)-oxopyrimidin-2-yl]thio)methyl]-2-methylbenzenesulfonamide]
18 | 0.38 | N#Cc1c(-c2ccc(-c3cccs3)s2)nc(SCc2ccc(NS(=O)(=O)c3ccc(F)cc3)cc2)[nH]c1=O [Compound 18, N-(4-[([5-Cyano-6-(5-[2-thienyl]thien-2-yl)-4(3H)-oxopyrimidin-2-yl]thio)methyl]phenyl) 4-fluorobenzenesulfonamide]
19 | 0.4 | N#Cc1c(-c2ccc(-c3cccs3)s2)nc(SCc2ccc(S(=O)(=O)Nc3ccc(F)cc3)cc2Cl)[nH]c1=O [Compound 19, N-(4-Fluorophenyl) 4-[([5-cyano-6-(5-[2-thienyl]thien-2-yl)-4(3H)-oxopyrimidin-2-yl]thio)methyl]-3-chlorobenzenesulfonamide]
20 | 1.8 | CN(c1ccc(CSc2nc(-c3ccc(-c4cccs4)s3)c(C#N)c(=O)[nH]2)cc1)S(=O)(=O)c1ccc(F)cc1 [Compound 20, N-(4-[([5Cyano-6(5-[2-thienyl]thien-2-yl)-4(3 H)-oxopyrimidin-2-yl]thio)methyl]phenyl)-N-methyl 4-fluorobenzenesulfonamide]
21 | 0.029 | N#Cc1c(-c2ccc(-c3cccs3)s2)nc(SCc2ccc(NS(=O)(=O)c3ccc(F)cc3)cc2Cl)[nH]c1=O [Compound 21, N-(3-Chloro-4-[([5-cyano-6-(5-[2-thienyl]thien-2-yl)-4(3H)-oxopyrimidin-2-yl]thio)methyl]phenyl) 4-fluorobenzenesulfonamide]
22 | 1 | Cc1cc(CSc2nc(-c3ccc(-c4cccs4)s3)c(C#N)c(=O)[nH]2)ccc1NS(=O)(=O)c1ccc(F)cc1 [Compound 22, N-(4-[([5-Cyano-6-(5-[2-thienyl]thien-2-yl)4(3H)-oxopyrimidin-2-yl]thio)methyl]-2-methylphenyl) 4-fluorobenzenesulfonamide]
23 | 0.77 | COc1cc(NS(=O)(=O)c2ccc(F)cc2)ccc1CSc1nc(-c2ccc(-c3cccs3)s2)c(C#N)c(=O)[nH]1 [Compound 23, N-(4-[([5-Cyano-6-(5-[2-thienyl]thien-2-yl)-4(3H)-oxopyrimidin-2-yl]thio)methyl]-3-methoxyphenyl) 4-fluorobenzenesulfonamide]
24 | 1.3 | COc1cc(CSc2nc(-c3ccc(-c4cccs4)s3)c(C#N)c(=O)[nH]2)ccc1NS(=O)(=O)c1ccc(F)cc1 [Compound 24]
25 | 1.4 | N#Cc1c(-c2ccc(-c3cccs3)s2)nc(SCc2cccc(NS(=O)(=O)c3ccc(F)cc3)c2)[nH]c1=O [Compound 25, N(3-[([5-Cyano-6-(5-[2-thienyl]thien-2-yl)-4(3H)-oxopyrimidin-2-yl]thio)methyl]phenyl) 4-fluorobenzenesulfonamide]
26 | 0.37 | O=C(O)c1ccc(CCCCCSc2nc(-c3cccc(-c4nn[nH]n4)c3)cc(=O)[nH]2)s1 [Compound 26, 5-[5-([6-(3-[1(H)-Tetrazol-5-yl]phenyl)-4(3H)-oxopyrimidin-2-yl]thio)pentyl]thiophene-2-carboxylic acid]
27 | 0.083 | N#Cc1c(-c2ccc(-c3cccs3)s2)nc(SCc2ccc(S(=O)(=O)NCCc3c[nH]c4ccccc34)cc2)[nH]c1=O [Compound 27, N-(2-[1(H)-indol-3-yl]-ethyl) 4-[([5-cyano-6-(5-[2-thienyl]thien-2-yl)-4(3H)-oxopyrimidin-2-yl]thio)methyl]benzenesulfonamide]
